Source: patent US20040006070A1, “Intraspinal continuous infusion of midazolam hydrochloride for the treatment of pain” (priority 2002, published 2004)
Structures can show the parent of a compound that is named as a salt.

Assay: Bloodwork: complete blood count, electrolytes, extended blood chemistry
Format: in vivo, sheep
Description: Indirect blood pressure, pulse recording, pain testing (mechanical stimulus device, cold and warm water baths see description in procedure) and weight were taken on days 1, 3, 7, 15, 22, 29, 36, and 43. Venous blood samples (15 ml drawn from the jugular vein with Vacutainer brand blood collection tubes) for complete blood count, electrolytes, and extended blood chemistry were drawn on days 1, 15, and 43 (mild procedure only light hand restraint necessary).

[1] = sheep Elmer Fudd #437, 5 mg/day, Day 43
[2] = sheep Leghorn II #815, 15 mg/day, Baseline
[3] = sheep Leghorn II #815, 15 mg/day, Day 1
[4] = sheep Leghorn II #815, 15 mg/day, Day 15
[5] = sheep Leghorn II #815, 15 mg/day, Day 43
[6] = sheep Petunia #439, 15 mg/day, Baseline
[7] = sheep Petunia #439, 15 mg/day, Day 1
[8] = sheep Petunia #439, 15 mg/day, Day 15
[9] = sheep Petunia #439, 15 mg/day, Day 43
[10] = sheep Porky #402, 5 mg/day, Baseline
[11] = sheep Porky #402, 5 mg/day, Day 1
[12] = sheep Porky #402, 5 mg/day, Day 15
[13] = sheep Porky #402, 5 mg/day, Day 43

Cc1ncc2n1-c1ccc(Cl)cc1C(c1ccccc1F)=NC2 [Midazolam, midazolam hydrochloride]
CPK [1]: 64 U/L | Cholesterol [1]: 90 mg/dL | Creatinine [1]: 1.3 mg/dL | Differential Count: Atyp lym [1]: 0% | Differential Count: Bands [1]: 0% | Differential Count: Eosin [1]: 2% | Differential Count: Lymph [1]: 38% | Differential Count: Mono [1]: 1% | Differential Count: Seg [1]: 59% | Gamma GT [1]: 48 U/L | Glucose [1]: 83 mg/dL | Hct [1]: 34.6% | Hgb [1]: 11.8 g/dL | K+ [1]: 4.3 mEq/l | MCH [1]: 10.8 pg | MCHC [1]: 34.2 G/dl | MCV [1]: 31.7 fL | Na+ [1]: 147 mEq/l | Phos [1]: 6.2 mg/dL | Platlet Count [1]: 540000 µL⁻¹ | RBC [1]: 1.09e+07 µL⁻¹ | Total Bili [1]: 0.1 mg/dL | Total Prot [1]: 6.6 g/dL | WBC [1]: 4650 µL⁻¹ | Differential Count: Atyp lym [2]: 0% | Differential Count: Baso [2]: 0% | Differential Count: Eosin [2]: 4% | Differential Count: Lymph [2]: 79% | Differential Count: Mono [2]: 3% | Differential Count: Seg [2]: 14% | Hct [2]: 36.9% | Hgb [2]: 12.5 g/dL | MCH [2]: 10.7 pg | MCHC [2]: 33.9 G/dl | MCV [2]: 31.5 fL | Platlet Count [2]: 516000 µL⁻¹ | RBC [2]: 1.17e+07 µL⁻¹ | WBC [2]: 6730 µL⁻¹ | ALT [3]: 14 U/L | AST [3]: 117 U/L | Albumin [3]: 3.5 g/dL | Alk Phos [3]: 117 U/L | BUN [3]: 19 mg/dL | CPK [3]: 94 U/L | Cholesterol [3]: 68 mg/dL | Creatinine [3]: 0.9 mg/dL | Differential Count: Atyp lym [3]: 0% | Differential Count: Baso [3]: 0% | Differential Count: Eosin [3]: 2% | Differential Count: Lymph [3]: 58% | Differential Count: Mono [3]: 2% | Differential Count: Seg [3]: 28% | Gamma GT [3]: 80 U/L | Glucose [3]: 80 mg/dL | Hct [3]: 34.7% | Hgb [3]: 11.8 g/dL | K+ [3]: 5.0 mEq/l | MCH [3]: 10.6 pg | MCHC [3]: 34.0 G/dl | MCV [3]: 31.1 fL | Na+ [3]: 146 mEq/l | Phos [3]: 8.3 mg/dL | Platlet Count [3]: 828000 µL⁻¹ | RBC [3]: 1.11e+07 µL⁻¹ | Total Bili [3]: 0 mg/dL | Total Prot [3]: 6.3 g/dL | WBC [3]: 6070 µL⁻¹ | Differential Count: Atyp lym [4]: 0% | Differential Count: Baso [4]: 0% | Differential Count: Eosin [4]: 16% | Differential Count: Lymph [4]: 59% | Differential Count: Mono [4]: 1% | Differential Count: Seg [4]: 24% | Hct [4]: 38.0% | Hgb [4]: 12.4 g/dL | MCH [4]: 10.4 pg | MCHC [4]: 32.7 G/dl | MCV [4]: 31.8 fL | Platlet Count [4]: 861000 µL⁻¹ | RBC [4]: 1.2e+07 µL⁻¹ | WBC [4]: 6640 µL⁻¹ | Differential Count: Atyp lym [5]: 0% | Differential Count: Baso [5]: 1% | Differential Count: Eosin [5]: 2% | Differential Count: Lymph [5]: 77% | Differential Count: Mono [5]: 2% | Differential Count: Seg [5]: 18% | Hct [5]: 36.4% | Hgb [5]: 12.3 g/dL | MCH [5]: 10.5 pg | MCHC [5]: 33.7 G/dl | MCV [5]: 31.2 fL | Platlet Count [5]: 345000 µL⁻¹ | RBC [5]: 1.17e+07 µL⁻¹ | WBC [5]: 6110 µL⁻¹ | Differential Count: Atyp lym [6]: 0% | Differential Count: Bands [6]: 0% | Differential Count: Eosin [6]: 130% | Differential Count: Lymph [6]: 53% | Differential Count: Mono [6]: 7% | Differential Count: Seg [6]: 27% | Hct [6]: 41.1% | Hgb [6]: 14.0 g/dL | MCH [6]: 11.5 pg | MCHC [6]: 34.2 G/dl | MCV [6]: 33.6 fL | Platlet Count [6]: 489000 µL⁻¹ | RBC [6]: 1.22e+07 µL⁻¹ | WBC [6]: 3120 µL⁻¹ | ALT [7]: 0 U/L | AST [7]: 102 U/L | Albumin [7]: 3.6 g/dL | Alk Phos [7]: 43 U/L | BUN [7]: 10 mg/dL | CPK [7]: 84 U/L | Cholesterol [7]: 60 mg/dL | Creatinine [7]: 1.1 mg/dL | Differential Count: Atyp lym [7]: 2% | Differential Count: Bands [7]: 1% | Differential Count: Eosin [7]: 1% | Differential Count: Lymph [7]: 50% | Differential Count: Mono [7]: 6% | Differential Count: Seg [7]: 40% | Gamma GT [7]: 84 U/L | Glucose [7]: 71 mg/dL | Hct [7]: 42.4% | Hgb [7]: 14.4 g/dL | K+ [7]: 5.4 mEq/l | MCH [7]: 11.3 pg | MCHC [7]: 33.9 G/dl | MCV [7]: 33.3 fL | Na+ [7]: 152 mEq/l | Phos [7]: 7.9 mg/dL | RBC [7]: 1.27e+07 µL⁻¹ | Total Bili [7]: 0 mg/dL | Total Prot [7]: 6.6 g/dL | WBC [7]: 2920 µL⁻¹ | Platlet Count (sheep Petunia #439, 15 mg/day, Day 1, platelet clumps observed): 715• ×10^3/μl | ALT [8]: 1 U/L | AST [8]: 94 U/L | Albumin [8]: 4.0 g/dL | Alk Phos [8]: 29 U/L | BUN [8]: 14 mg/dL | CPK [8]: 105 U/L | Cholesterol [8]: 61 mg/dL | Creatinine [8]: 1.2 mg/dL | Differential Count: Atyp lym [8]: 1% | Differential Count: Bands [8]: 0% | Differential Count: Eosin [8]: 2% | Differential Count: Lymph [8]: 46% | Differential Count: Mono [8]: 3% | Differential Count: Seg [8]: 48% | Gamma GT [8]: 74 U/L | Glucose [8]: 93 mg/dL | Hct [8]: 30.8% | Hgb [8]: 10.1 g/dL | K+ [8]: 4.3 mEq/l | MCH [8]: 11.2 pg | MCHC [8]: 32.7 G/dl | MCV [8]: 34.2 fL | Na+ [8]: 150 mEq/l | Phos [8]: 4.9 mg/dL | RBC [8]: 9.02e+06 µL⁻¹ | Total Bili [8]: 0.3 mg/dL | Total Prot [8]: 7.2 g/dL | WBC [8]: 3600 µL⁻¹ | Platlet Count (sheep Petunia #439, 15 mg/day, Day 15, platelet clumps observed): 606• ×10^3/μl | ALT [9]: 0 U/L | AST [9]: 97 U/L | Albumin [9]: 3.6 g/dL | Alk Phos [9]: 49 U/L | BUN [9]: 17 mg/dL | CPK [9]: 91 U/L | Cholesterol [9]: 65 mg/dL | Creatinine [9]: 1.2 mg/dL | Differential Count: Atyp lym [9]: 1% | Differential Count: Bands [9]: 0% | Differential Count: Eosin [9]: 7% | Differential Count: Lymph [9]: 47% | Differential Count: Mono [9]: 4% | Differential Count: Seg [9]: 41% | Gamma GT [9]: 77 U/L | Glucose [9]: 68 mg/dL | Hct [9]: 36.0% | Hgb [9]: 11.8 g/dL | K+ [9]: 5.2 mEq/l | MCH [9]: 11.2 pg | MCHC [9]: 32.7 G/dl | MCV [9]: 34.1 fL | Na+ [9]: 146 mEq/l | Phos [9]: 6.2 mg/dL | Platlet Count [9]: 356000 µL⁻¹ | RBC [9]: 1.05e+07 µL⁻¹ | Total Bili [9]: 0.1 mg/dL | Total Prot [9]: 6.3 g/dL | WBC [9]: 2300 µL⁻¹ | Differential Count: Atyp lym [10]: 0% | Differential Count: Bands [10]: 0% | Differential Count: Eosin [10]: 2% | Differential Count: Lymph [10]: 48% | Differential Count: Mono [10]: 2% | Differential Count: Seg [10]: 48% | Hct [10]: 40.7% | Hgb [10]: 13.5 g/dL | MCH [10]: 12.4 pg | MCHC [10]: 33.2 g/dL | MCV [10]: 37.2 fL | Platlet Count [10]: 215000 µL⁻¹ | RBC [10]: 1.09e+07 µL⁻¹ | WBC [10]: 3530 µL⁻¹ | ALT [11]: 3 U/L | AST [11]: 67 U/L | Albumin [11]: 3.5 g/dL | Alk Phos [11]: 37 U/L | BUN [11]: 10 mg/dL | CPK [11]: 73 U/L | Cholesterol [11]: 71 mg/dL | Creatinine [11]: 1.3 mg/dL | Differential Count: Atyp lym [11]: 0% | Differential Count: Bands [11]: 0% | Differential Count: Eosin [11]: 1% | Differential Count: Lymph [11]: 41% | Differential Count: Mono [11]: 5% | Differential Count: Seg [11]: 53% | Gamma GT [11]: 46 U/L | Glucose [11]: 72 mg/dL | Hct [11]: 40.4% | Hgb [11]: 13.4 g/dL | K+ [11]: 4.6 mEq/l | MCH [11]: 12.3 pg | MCHC [11]: 33.1 g/dL | MCV [11]: 37.1 fL | Na+ [11]: 153 mEq/l | Phos [11]: 7.5 mg/dL | Platlet Count [11]: 319000 µL⁻¹ | RBC [11]: 1.09e+07 µL⁻¹ | Total Bili [11]: 0 mg/dL | Total Prot [11]: 6.8 g/dL | WBC [11]: 3470 µL⁻¹ | ALT [12]: 8 U/L | AST [12]: 69 U/L | Albumin [12]: 3.9 g/dL | Alk Phos [12]: 33 U/L | BUN [12]: 14 mg/dL | CPK [12]: 94 U/L | Cholesterol [12]: 3.5 mg/dL | Creatinine [12]: 1.2 mg/dL | Differential Count: Atyp lym [12]: 0% | Differential Count: Bands [12]: 0% | Differential Count: Eosin [12]: 1% | Differential Count: Lymph [12]: 33% | Differential Count: Mono [12]: 5% | Differential Count: Seg [12]: 61% | Gamma GT [12]: 74 U/L | Glucose [12]: 89 mg/dL | Hct [12]: 31.4% | Hgb [12]: 10.2 g/dL | K+ [12]: 4.2 mEq/l | MCH [12]: 12.3 pg | MCHC [12]: 32.3 g/dL | MCV [12]: 38.2 fL | Na+ [12]: 150 mEq/l | Phos [12]: 48 mg/dL | Platlet Count [12]: 173000 µL⁻¹ | RBC [12]: 8.23e+06 µL⁻¹ | Total Bili [12]: 0.2 mg/dL | Total Prot [12]: 7.4 g/dL | WBC [12]: 3170 µL⁻¹ | ALT [13]: 13 U/L | AST [13]: 59 U/L | Albumin [13]: 3.5 g/dL | Alk Phos [13]: 55 U/L | BUN [13]: 17 mg/dL | CPK [13]: 93 U/L | Cholesterol [13]: 62 mg/dL | Creatinine [13]: 1.3 mg/dL | Differential Count: Atyp lym [13]: 1% | Differential Count: Bands [13]: 0% | Differential Count: Eosin [13]: 5% | Differential Count: Lymph [13]: 40% | Differential Count: Mono [13]: 5% | Differential Count: Seg [13]: 49% | Gamma GT [13]: 42 U/L | Glucose [13]: 61 mg/dL | Hct [13]: 39.2% | Hgb [13]: 12.2 g/dL | K+ [13]: 4.8 mEq/l | MCH [13]: 12.0 pg | MCHC [13]: 31.8 g/dL | MCV [13]: 37.6 fL | Na+ [13]: 147 mEq/l | Phos [13]: 5.9 mg/dL | Platlet Count [13]: 214000 µL⁻¹ | RBC [13]: 1.04e+07 µL⁻¹ | Total Bili [13]: 0.1 mg/dL | Total Prot [13]: 6.4 g/dL | WBC [13]: 3590 µL⁻¹
